{"source": "patent US20170280718A1", "about": "“HERBICIDAL AND FUNGICIDAL COMPOSITIONS AND THEIR USES” (The Regents of the University of California, priority 2014, published 2017)", "key": {"[1]": {"system": "Arabidopsis etiolated hypocotyls", "assay": "Hypocotyl growth measurements of etiolated seedlings", "type": "in vivo", "conditions": "for hypocotyl growth response of prc1-1 mutant: CESA6 mutant prc1-1, 8 μM CESTRIN or 4 nM isoxaben, lower degree than WT Col-0; for IC50: Arabidopsis thaliana", "protocol": "For growth analysis, seedlings were germinated on AGM containing the chemicals CESTRIN or isoxaben solubilized in DMSO and grown as described above. When the experiment was complete, the plates were scanned using a flatbed scanner (Epson Perfection V300) and hypocotyl lengths were measured using the segmented line tool in the image analysis software, ImageJ (Rasband et al., 1997-2014). Statistical analyses were carried out using the statistical package, R (R Core Team, 2012)."}, "[2]": {"system": "cellulose content in Arabidopsis etiolated seedlings", "assay": "Cellulose content of etiolated hypocotyls (modified Updegraff method, Anthrone assay)", "type": "in vivo, Arabidopsis thaliana", "protocol": "Etiolated WT Col-0 Arabidopsis thaliana seedlings were grown on AGM containing CESTRIN as described above. Hypocotyls were harvested after 8 days of growth. Cell wall materials were isolated into alcohol insoluble residues (AIR) (Gunl et al., 2010) and cellulose content was estimated using a modified Updegraff method (Updegraff, 1969). Briefly, insoluble trifluoroacetic acid hydrolyzed AIR pellets were quantified using the Anthrone assay as described earlier Viles & Silverman (1949) and Dische (1962)."}, "tubulin": {"system": "tubulin", "assay": "MT polymerization assay (in vitro, OD of polymerized tubulin)", "type": "biochemical", "conditions": "15 μM", "description": "The MT polymerization data was obtained using a polymerization assay kit (Cytoskeleton, Inc. Denver Colo.), employing OD measurements of polymerized tubulin as previously described (Shelanski et al., 1973; Lee and Timasheff, 1977)."}, "E. coli": {"system": "E. coli", "assay": "Bacterial growth in LB media containing the chemical", "type": "cell-based", "conditions": "OD over 8 hours", "protocol": "Two mL of Luria-Bertani (LB) media (10 g tryptone, 5 g yeast extract, and 10 g NaCl, pH 7) were inoculated with a single colony of TOP 10 cells and incubated overnight at 37° C. Thirty μL of this culture was then used to inoculate 3 mL of LB media containing the chemical. The OD was measured every 30 minutes over 8 hours using a spectrometer."}, "[3]": {"system": "Schizosaccharomyces pombe", "assay": "Yeast growth on solid YPD containing the chemical", "type": "cell-based", "conditions": "5 days", "protocol": "Single colonies of Saccharomyces cerevisiae-Y2H Gold and Schizosaccharomyces pombe were grown in liquid yeast extract-peptone-dextrose (YPD) media (10 g yeast extract, 20 g peptone, and 20 g glucose per 1 L of media, pH 7), at 30° C. for 24 hours. Yeast cultures were transferred to 3 mL of YPD to grow until an OD of 0.7 was reached. Ten μL of liquid YPD containing yeast at an OD 0.7 were placed onto solid YPD (10 g yeast extract, 20 g peptone 20 g glucose and 11 g bacto-agar per 1 L of media, pH 7) in a 6 well plate containing the chemicals. Four serial dilutions (1:10) were spotted per well. Plates were incubated at 30° C. for 3 days for Saccharomyces cerevisiae-Y2H Gold and 5 days for Schizosaccharomyces pombe and imaged with a flatbed scanner."}, "[4]": {"system": "microtubules (TUB-GFP, RFP-TUA5), EB1-GFP, Talin-GFP, CESA6-YFP", "assay": "Cytoskeleton and CESA marker localization in etiolated hypocotyls (microtubules, EB1, actin, CESA6)", "type": "cell-based, Arabidopsis", "description": "(§1) Transgenic lines expressing MAN-YFP (Nebenfuhr et al., 1999), HDEL-GFP (Nelson et al., 2007), VAMP711-YFP (Geldner et al., 2009), NTPP-RFP (Rosado et al.), THE1-GFP (Hematy et al., 2007), CLC-GFP (Konopka et al., 2008), VHA-RFP (Dettmer et al., 2006), VTI12-YFP (Geldner et al., 2009), CFP-SYP61 (Robert et al., 2008), sec-GFP (Goh et al., 2007), CESA6-YFP (Paredez et al., 2006), TUB-GFP (Nakamura et al., 2004), EB1-GFP (Bisgrove et al., 2008) and TALIN-GFP ((Mathur et al., 1999) were used. In addition, the mutant ixr1-1 (Scheible et al., 2001) and prc1-1 (Desnos et al., 1996) were used.\n(§2) Confocal images for CFP-SYP61-×CESA3-GFP were obtained using a Leica SP5 microscope using a 63× water objective employing dual channel sequential line scanning. Fluorescent markers were excited at 442 nm (CFP) and 488 nm (GFP). Additional confocal images were obtained using a Zeiss 710 equipped with a 63× oil and a 40× water objective. A 561 nm diode laser was used for propidium iodide (PI, Sigma) and RFP, a 488 nm for GFP, a 514 nm for YFP, and a 405 nm for CFP. Image analysis was performed using a combination of software tools: ImageJ software (version 1.36b; http://rsbweb.nih.gov/ij/), Image Pro Plus (Media Cybernetics, Rockville, Md.), and Imaris (Bitplane, Saint Paul, Minn.)."}, "[5]": {"system": "GFP-CESA3 (cellulose synthase complexes, CSCs)", "conditions": "2-hour CESTRIN treatment (15 μM); control 218 nm/min"}, "GFP-KOR1": {"system": "GFP-KOR1", "conditions": "CESTRIN treatment; control average 220 nm/min"}, "[6]": {"system": "ER, Golgi, TGN, early endosomes, vacuole, CLC2-GFP, Theseus-GFP, sec-GFP markers", "assay": "Specificity: organelle markers and their subcellular localizations in etiolated hypocotyls", "type": "cell-based, Arabidopsis", "description": "as §1\nas §2, with “Minn.). […]” for “Minn.).”"}, "Phytophtora capsici": {"system": "Phytophtora capsici", "assay": "Phytophthora growth in corn agar media", "type": "cell-based", "conditions": "3 weeks in supplemented media", "protocol": "Phytophtora capsici inoculates were grown in corn agar media supplemented either with DMSO or different concentrations of CESTRIN. After 3 weeks cultures were imaged using flatbed scanner."}, "[7]": {"system": "GFP-CESA3 and CFP-SYP61 compartments", "assay": "Colocalization of GFP-CESA3 and CFP-SYP61 compartments, confocal microscopy", "type": "cell-based, Arabidopsis", "conditions": "versus DMSO; p=0.0013, t-test", "protocol": "as §2\nCSCs are enriched in SYP61 associated compartments upon CESTRIN treatment. The apparent redistribution of CSCs in the cell cortex prompted us to further investigate the identity of CESTRIN bodies. Previous studies have shown that CSCs are partially colocalized with SYP61/VHA-a1 in early endosome/TGN compartments (Crowell et al., 2009; Gutierrez et al., 2009). The presence of CESAs in SYP61 vesicles has been established by proteomic analysis (Drakakaki et al., 2012). […] As previously shown, both SYP61 and SYP41/42 partially overlap with CESA6 under mock treatment, however only SYP61 remains partially colocalized after mannitol treatment (Gutierrez et al., 2009). […]"}}, "note": "“Also recorded” adds a separate entry of the source. Like-named read-outs stand apart in the source and are kept apart here."}
{"compound": "CCC(C)(CC)c1cc(NC(=O)c2c(OC)cccc2OC)on1", "note": "[isoxaben, N-[3-(1-Ethyl-1-methylpropyl)-5-isoxazolyl]-2,6-dimethyoxybenzamide, reference compound]", "values": [{"measurement": "hypocotyl growth response of prc1-1 mutant", "setting": "[1]", "result": "showed sensitivity"}, {"measurement": "hypocotyl growth of ixr1-1", "setting": "[1]; ixr1-1, 4 nM isoxaben vs DMSO, p=0.2", "result": "not reduced"}]}
{"compound": "Cc1cc(C(F)(F)F)cc(NNc2c([N+](=O)[O-])cc(C(F)(F)F)cc2[N+](=O)[O-])n1", "note": "[CESTRIN, 1-[2,6-dinitro-4-(trifluoromethyl)phenyl]-2-[6-methyl-4-(trifluoromethyl)pyridin-2-yl]hydrazine]", "values": [{"measurement": "Cellulose content, Hypocotyl", "setting": "[2]; 9 μM, etiolated seedlings, 8 days, DMSO 103.7 ± 6.4", "result": "75.3 ± 2.7", "unit": "μg/mg AIR"}, {"measurement": "reduction in cellulose compared to control seedlings", "setting": "[2]; hypocotyls grown on 9 μM CESTRIN", "result": "~30", "unit": "%"}, {"measurement": "in-vitro polymerization of tubulin", "setting": "tubulin", "result": "not affected; also recorded: does not inhibit in vitro tubulin polymerization"}, {"measurement": "effect on proliferation of bacteria", "setting": "E. coli", "result": "no effect on their proliferation was observed"}, {"measurement": "IC50", "setting": "[1]; read-out: estimated IC50, anisotropic cell growth", "result": 4.9, "unit": "µM"}, {"measurement": "IC50", "setting": "[1]; read-out: half maximal inhibitory concentration (IC50), growth inhibition of hypocotyls", "result": 4.85, "unit": "µM"}, {"measurement": "hypocotyl growth response of prc1-1 mutant", "setting": "[1]", "result": "showed sensitivity"}, {"measurement": "reduction of hypocotyl growth of WT Col-0", "setting": "[1]; WT Col-0, 8 μM CESTRIN vs DMSO, P=0.001", "result": 80, "unit": "%"}, {"measurement": "reduction of hypocotyl growth of ixr1-1", "setting": "[1]; isoxaben-resistant CESA3 mutant ixr1-1, 8 μM CESTRIN vs DMSO, n=16", "result": 62, "unit": "%"}, {"measurement": "growth of yeast", "setting": "[3]", "result": "inhibited"}, {"measurement": "localization of 3×Ypet-POM2", "setting": "3×Ypet-POM2/CSI1; 2 hours of CESTRIN treatment", "result": "localized to the cytoplasm"}, {"measurement": "motility of POM2 labelled particles", "setting": "3×Ypet-POM2/CSI1; after 2 hours of treatment", "result": "came virtually to a rest"}, {"measurement": "average motility of POM2 labelled particles", "setting": "3×Ypet-POM2/CSI1; after about 1.5 hours of treatment, n=106, control ~262 nm/min", "result": 0.273, "unit": "×10⁻⁶ cm/s"}, {"measurement": "morphology or organization of actin (Talin-GFP)", "setting": "[4]; 15 μM", "result": "does not affect"}, {"measurement": "localization of the end binding protein 1 (EB1-GFP)", "setting": "[4]; 15 μM (printed 15 JIM)", "result": "induced cytoplasmic localization"}, {"measurement": "MT organization and GFP-CESA3 particle distribution (RFP-TUA5 / GFP-CESA3 seedlings)", "setting": "[4]; two-hour treatment", "result": "causes loss of MT organization and redistribution of GFP-CESA3 particles"}, {"measurement": "average velocity of the GFP-CESA3 particles", "setting": "[5]", "result": 127, "unit": "nm/min"}, {"measurement": "mean velocity of GFP-KOR1 labelled particles", "setting": "GFP-KOR1", "result": "~60", "unit": "nm/min"}, {"measurement": "localization of PM-receptor-like kinase Theseus-GFP and secretion marker sec-GFP", "setting": "[6]", "result": "neither the localization of the PM-receptor-like kinase Theseus-GFP nor the secretion marker sec-GFP were altered"}, {"measurement": "morphology of endosomes labeled by CLC2-GFP", "setting": "[6]", "result": "unaltered morphology"}, {"measurement": "Phytophthora capsici growth", "setting": "Phytophtora capsici", "result": "completely inhibited"}, {"measurement": "enhancement of colocalization of GFP-CESA3 and CFP-SYP61 compartments", "setting": "[7]", "result": "~15", "unit": "%"}]}
